# “Also recorded” adds a separate entry of the source.
# Assays:
# mouse hippocampus [1] = assay: Neural progenitor amplification (BrdU incorporation) after intracerebroventricular osmotic pump infusion; format: in vivo; settings: 1 mM intracerebroventricular, 0.5 μl per hour, 7 days, compared to allopurinol or vehicle alone
# Procedure: To assess the effects of febuxostat on neural progenitor amplification, febuxostat or allopurinol (1 mM) were intracerebroventricularly delivered via osmotic pump infusion (0.5 μl per hour) to mouse brains for 7 days. Control subjects received vehicle alone. BrdU was administered in four injections on day 6, and brain tissues were harvested on day 7. Neural progenitor amplification was measured by quantifying the number of BrdU-positive cells in the subgranular zone (SGZ) of hippocampal tissue sections.
# mouse hippocampus [2] = assay: Neuronal differentiation (DCX with BrdU) after intracerebroventricular osmotic pump infusion; format: in vivo; settings: 1 mM intracerebroventricular 7 days, tissue harvested day 14, compared to allopurinol or vehicle alone
# Procedure: To assess the effects of febuxostat on adult neurogenesis, febuxostat or allopurinol (1 mM) were delivered to mouse brains for 7 days as described above. BrdU was administered in eight injections over days 2-3. The osmotic pump was removed on day 7 and brain tissues were harvested on day 14. The hippocampal slices were subjected to immunohistochemical analysis for the detection of BrdU and doublecortin (DCx) (newly formed neuron marker) stained cells in the subgranular zone of the hippocampus.
# [3] = test system: hippocampus of mice subjected to chronic restraint stress; assay: Neural progenitor amplification (BrdU-positive cells) in mice under chronic restraint stress; format: in vivo, mouse; settings: for neuron progenitor amplification (BrdU incorporation): vs allopurinol, vehicle and unrestrained controls, n=3 mice
# Procedure: (§1) Murine subjects underwent CRS on day zero, with febuxostat (1 mg kg^−1 d^−1) allopurinol (20 mg kg^−1 d^−1), Rhy37 (10 mg kg^−1 d^−1), or vehicle alone, administered daily intragastrically beginning on day 15. BrdU was administered on day 36, and brain tissues harvested on day 37 or 50. Control subjects remained free throughout the trial period. Neural progenitor amplification was measured by quantifying the number of BrdU-positive cells in hippocampal tissue sections. […] Results were compared using a one-way ANOVA test.
# [4] = test system: hippocampus of mice subjected to chronic restraint stress; assay: Neuronal differentiation (DCX+/BrdU-positive cells) in mice under chronic restraint stress; format: in vivo, mouse
# Procedure: as §1
# [5] = CRS mice, daily intragastric from day 15, harvest day 37 or 50, compared to allopurinol or vehicle alone
structure (smiles),measurement,setting,value
"Cc1nc(-c2ccc(OCC(C)C)c(C#N)c2)sc1C(=O)O [febuxostat, 2-(3-cyano-4-isobutoxyphenyl)-4-methyl-1,3-thiazole-5-carboxylic acid]",neural progenitor amplification (BrdU-positive cells in the subgranular zone),mouse hippocampus [1],promotes neural progenitor amplification; also recorded: increased levels
same,neural differentiation (BrdU and doublecortin stained cells in the subgranular zone),mouse hippocampus [2],neuronal differentiation; also recorded: increased levels
same,neuron progenitor amplification (BrdU incorporation),[3]; 37 days of chronic restraint stress,promotes neuron progenitor amplification
same,neuron progenitor amplification (BrdU incorporation),[3]; 50 days of chronic restraint stress,promotes neuron progenitor amplification
same,neural progenitor amplification (BrdU-positive cells),[3]; [5],increased levels
same,neuronal differentiation (DCX expression with BrdU incorporation),"[4]; 50 days of chronic restraint stress, vs allopurinol, vehicle and unrestrained controls",promotes neuronal differentiation
same,neural differentiation (DCX+/BrdU-positive cells),[4]; [5],increased levels
